This note sets out measurements from patent US10631537B2, “Disinfectant composition having residual biocidal properties” (LONZA LLC, priority 2016, dated 2020).

One experiment deals with P. aeruginosa ATCC 15442. In words: First screening: residual self-sanitizing activity of dried film on stainless steel coupon, no wearing (modified EPA Protocol #01-1A). The following applies: about 30 mg on one square inch, dried overnight, 5 minute contact time. Format: cell-based. The protocol: (§1) First round of micro test was to evaluate the efficacy of the biocides against P. aeruginosa. About 30 mg of the biocide/polymer based formulation were coated on the one square inch area of a stainless steel coupon. The treated stainless steel coupons were left on the bench for air drying overnight. The dried stainless steel test samples were sent to a micro lab for efficacy testing against P. aeruginosa ATCC 15442 following a modified version of Residual Self-Sanitizing Activity on Hard, Non-Porous Surfaces (EPA Protocol #01-1A). […] Samples were inoculated with the test organism and held for a 5 minute contact time. Three replicates were tested for each sample.

A further experiment concerns P. aeruginosa. In words: Second screening: efficacy of dried film after abrasion (0 rub vs 12 dry rubs). The following applies: active 0.4%, film PVOH, about 30 mg; for Log10 Reduction, 12 dry Rubs: no re-inoculation between rubs. Type of experiment: cell-based. The protocol:
as §1, with “sample. Second round of testing was to compare the efficacy after an abrasion process. About 30 mg of the test formulation was coated on the one square inch area of a stainless steel coupon. Samples were divided into two groups: one group had 0 rub, and the other group had 12 dry rubs. No re-inoculation was applied between rubs.” for “sample.”

Where [1] appears, read: active concentration 0.4%, film PVOH.

With Alkyldimethyl benzyl ammonium chlorides, the “Log reduction (with culture dilution), average” value (“Log reduction” for short) in the experiment with P. aeruginosa ATCC 15442 (setting [1]) was 3.85 log. In the experiment on P. aeruginosa, the “Log10 Reduction, 12 dry Rubs” value is on record as 3.48 log10 and the “Log10 Reduction, No Rub” value is reported as 3.56 log10.

As to `N=C(NCCCCCCNC(=N)NC(=N)Nc1ccc(Cl)cc1)NC(=N)Nc1ccc(Cl)cc1` [Chlorhexidine digluconate], the “Log reduction” value in the experiment with P. aeruginosa ATCC 15442 (active concentration 1.0%, film PVOH) is given as at least 4.85 log. Further, in the experiment on P. aeruginosa, the “Log10 Reduction, 12 dry Rubs” value is reported as 5.04 log10 and the “Log10 Reduction, No Rub” value was determined as 5.42 log10.

On to `CCCCCCCCCCCCN(CCCN)CCCN` [N,N-bis(3-aminopropyl) dodecylamine, N,N-bis(3-aminopropyl)dodecylamine], for which the “Log reduction” value with P. aeruginosa ATCC 15442 (setting [1]) is at least 4.85 log. For the same molecule, in the experiment with P. aeruginosa ATCC 15442 (active concentration 0.4%, film PVP), the “Log reduction” value was determined as 4.05 log. Moreover, in the experiment on P. aeruginosa, the “Log10 Reduction, 12 dry Rubs” value is listed as 4.77 log10 and the “Log10 Reduction, No Rub” value was determined as 5.22 log10.
